# Measured values taken from patent US10215751B2, “Carboxy X rhodamine analogs” (PROMEGA CORPORATION, priority 2011, dated 2019).
# Target: T1, NanoLuc luciferase-PKC alpha fusion protein (Homo sapiens, UniProt P17252)
# T1 construct: expressed in transfected cells; host or cells: HEK293 cells, transient transfection with pF5 plasmid
# Assay: BRET negative control with cells expressing NanoLuc fused to an irrelevant kinase
# Type: cell-based
# Conditions: HEK293 cells expressing NanoLuc-PKCalpha (negative control)
# Experimental: HEK293 cells (20,000 cells per well in 96-well format) were transiently transfected (Fugene HD, Promega Corporation) with pF5 plasmid DNA (Promega Corporation) encoding a NanoLuc® luciferase-p38alpha kinase fusion protein. As a negative control, some cells were transfected with a pF5 plasmids DNA encoding a NanoLuc luciferase-PKC alpha fusion protein. On the second day post transfection, the cell medium was replaced with serum-free Opti-MEM (Life Technologies) with or without 50 ug/ml digitonin. […] A furimazine substrate (PBI 3939), a substrate for the NanoLuc luciferase, then was added to cells to a final concentration of 20 uM. BRET ratios were recorded using a Varioskan luminometer at the following wavelengths: 630 nm (acceptor)/450 nm (donor). Acceptor/donor values were used to determine BRET ratio (FIGS. 21 and 22).
smiles,measurement,value
"Cc1ccc(-n2nc(C(C)(C)C)cc2NC(=O)Nc2ccc(OCCN3CCOCC3)c3ccccc23)cc1 [BIRB796, reference compound]",Effect of unlabeled BIRB796 on BRET signal with PBI 4838,not affected
